How the values were obtained:
HT29 cells [1] = assay: Effect of sugar transport inhibitor (phloridzen) on in vitro cytotoxicity; assay type: cell-based, human; settings: for GI50: 48 hours
Method: (§1) The effect of experimental compounds on cancer cell growth and viability was measured in a panel of human cancer cells grown in vitro. All cancer cell lines were obtained from the American […]. Cells were maintained in the following media: TUR, H69AR, Calu-6, ME180, and PC3 cells were grown in RPMI medium containing 4.5 g/L glucose, 10% FBS, 4 mM L-glutamine, and 1 mM sodium pyruvate); and HT29 cells were grown in DMEM with 4.5 g/L glucose, 10% FBS, and 6 mM L-glutamine. All cells were grown at 37° C. in 5% CO2 and passaged bi-weekly.
(§2) For cytoxicity studies, cells were seeded into 96-well clear-bottom microtiter plates at the following densities: TUR (7,500 cells/well), HT29 (5,000 cells/well), H69AR (10,000 cells/well), Calu-6 (15,000 cells/well), and ME180 (2,500 cells/well). Cells were maintained at 37° C. with 5% CO2 for 24 hours prior to addition of various experimental compounds. Each condition was measured in triplicate. For compounds dissolved in DMSO, the final DMSO concentration in each well and in the non-drug treated control cells was constant and below 1% in all studies. The number of viable cells was determined after 24, 48, and 72 hours using Alamar blue fluorescence. Briefly, Alamar blue (10 mM) was added to each well for 4 hours, and the number of viable cells estimated by measuring the fluorescence of reduced Alamar blue (530 nm excitation, 590 nm emission). To correct for background fluorescence, cells were treated with 100% DMSO to eliminate all viable cells. The effect of drug on cell growth was determined by calculating the fraction of live cells treated with drug compared to untreated cells: (F1drug treated−F1DMSO killed)/(F1untreated−F1DMSO killed).

ME180 cells = assay: In vitro cytotoxicity (Alamar blue growth inhibition), ME180; assay type: cell-based, human; settings: ME180, 48 h
Method: as §1, §2

PC3 (Prostate) xenograft = assay: In vivo tumor growth inhibition, mouse xenograft, PC3; set-up: species or system nude athymic CD-1 mice; settings: 80 mg/kg (2/week), IP
Method: (§3) Tumor xenograft studies were performed using nude athymic CD-1 mice (Charles River Laboratories). Human cancer cells (5×10^6 PC3, 5×10^6 HT29, 10^7 Calu-6, and 5×10^6 ME180) were implanted in the hind flank of nude mice. Tumor growth was measured using calipers and tumor volume calculated using the formula: (width^2×(length/2)). Tumor volume was measured 3 days per week. Animal weight was measured 3 days per week to assess compound toxicity.
(§4) Compounds were tested for in vivo tumor growth inhibition as follows. Animals bearing tumors 100-200 mg were sorted into groups (5-8 animals) with similar average tumor mass per group. Drug doses were administered by intraperitoneal (IP) injection (0.5 mL). Test compounds were dissolved in phosphate buffered saline (PBS) and concentration adjusted for animal weight. Actual drug concentrations in formulated doses were verified by quantitative nitrogen detection. Animals were dosed every 7 days for 21 days in most studies. In several studies, animals were dosed twice weekly (days 0, 4, 7, 10, 14, etc.). Tumor volume and animal weight were measured on days 0, 2, 4, 7, 9, 11, 14, 16, 18, 21, 23, 25, and 28. […] Tumor volume at the end of the study was calculated as a percentage of the tumor volume on day 0. […]

[2] = Determination of maximum tolerated dose (MTD); assay type: in vivo, nude mice
Method: To determine the maximum tolerated doses for compound (54) relative to clinically used platinum anticancer agents, nude mice were injected with increasing drug doses (0.5 mL, intraperitoneally) on days 0, 7, and 14. […] The therapeutic index of a given drug is defined as the ratio of the maximum tolerated dose to the minimally effective dose.

[3] = system: ME180 (Cervical) xenograft; assay: In vivo tumor growth inhibition, mouse xenograft, ME180; set-up: species or system nude athymic CD-1 mice; settings: IP
Method: as §3
(§5) Compounds were tested for in vivo tumor growth inhibition as follows. Animals bearing tumors 100-200 mg were sorted into groups (5-8 animals) with similar average tumor mass per group. Drug doses were administered by intraperitoneal (IP) injection (0.5 mL). Test compounds were dissolved in phosphate buffered saline (PBS) and concentration adjusted for animal weight. Actual drug concentrations in formulated doses were verified by quantitative nitrogen detection. Animals were dosed every 7 days for 21 days in most studies. In several studies, animals were dosed twice weekly (days 0, 4, 7, 10, 14, etc.). Tumor volume and animal weight were measured on days 0, 2, 4, 7, 9, 11, 14, 16, 18, 21, 23, 25, and 28. At the end of the study, animal blood was removed for analysis of liver and kidney function (BUN, creatine, AST and ALT; analytical measurements performed by Quality Clinical Labs). Tumor volume at the end of the study was calculated as a percentage of the tumor volume on day 0. The percent tumor growth inhibition was obtained from the ratio of the percentage tumor volume increase in drug treated animals to the percentage tumor volume increase in saline treated animals.

HT29 (Colon) xenograft = assay: In vivo tumor growth inhibition, mouse xenograft, HT29; set-up: species or system nude athymic CD-1 mice; settings: IP
Method: as §3, §5

Calu-6 (Lung) xenograft = assay: In vivo tumor growth inhibition, mouse xenograft, Calu-6; set-up: species or system nude athymic CD-1 mice; settings: IP
Method: as §3, §5

Calu-6 cells = assay: In vitro cytotoxicity (Alamar blue growth inhibition), Calu-6; assay type: cell-based, human; settings: Calu-6, 48 h
Method: as §1, §2

HT29 cells [4] = assay: In vitro cytotoxicity (Alamar blue growth inhibition), HT29; assay type: cell-based, human; settings: HT29, 48 h
Method: as §1, §2

[5] = system: several different tumor types; assay: In vivo tumor growth inhibition, overall statement; set-up: species or system nude athymic CD-1 mice; settings: mouse xenografts, compared with cisplatin, oxaliplatin, carboplatin
Method: as §3, §4

H69AR cells = assay: In vitro cytotoxicity (Alamar blue growth inhibition), H69AR; assay type: cell-based, human; settings: 48 h
Method: as §1, §2

TUR cells = assay: In vitro cytotoxicity (Alamar blue growth inhibition), TUR; assay type: cell-based, human; settings: 48 h
Method: as §1, §2

PC3 cells = assay: In vitro cytotoxicity (Alamar blue growth inhibition), PC3; assay type: cell-based, human; settings: PC3, 48 h
Method: as §1, §2

Structure (SMILES): O=C(CCCC1C(=O)[O][Pt]2([NH]C3CCCCC3[NH]2)[O]C1=O)NCC1OC(O)C(O)C(O)C1O [(54), [1R,2R-Cyclohexanediamine-N,N′][{3-(α,β-D-Galactopyranos-6-ylamido)propyl}propanedioato(2-)-O,O′]Platinum (II)]
- GI50 (HT29 cells [1]; HT29, 0 mM phloridzen, read-out: GI50 of Uptake in HT29 Cells, 0 mM Phoridzen): 385 µM
- GI50 (HT29 cells [1]; HT29, 0.2 mM phloridzen, read-out: GI50 of Uptake in HT29 Cells, 0.2 mM Phoridzen): 574 µM
- GI50 (HT29 cells [1]; HT29, 0.5 mM phloridzen, read-out: GI50 of Uptake in HT29 Cells, 0.5 mM Phoridzen): 759 µM
- GI50 (HT29 cells [1]; HT29, 1.0 mM phloridzen, read-out: GI50 of Uptake in HT29 Cells, 1.0 mM Phoridzen): > 1000 µM
- Effect of increasing concentrations of phloridzen on cytotoxic effects (HT29 cells [1]; HT29, 48 hours, in words): block the cytotoxic effects
- GI50 (ME180 cells): 15 µM
- Percent Tumor Growth Inhibition PC3 (Prostate) (PC3 (Prostate) xenograft): 82%
- Therapeutic index relative to cisplatin, carboplatin, oxaliplatin, in words ([2]; in words): dramatically improved therapeutic index
- Therapeutic Index MTD/Min Eff ([2]; ratio of maximum tolerated dose to minimally effective dose): 12.7
- Percent Tumor Growth Inhibition ME180 (Cervical) ([3]; 50 mg/kg (2/week)): 24%
- Percent Tumor Growth Inhibition ME180 (Cervical) ([3]; 75 mg/kg (2/week)): 24%
- Percent Tumor Growth Inhibition ME180 (Cervical) ([3]; 100 mg/kg): 18%
- Percent Tumor Growth Inhibition ME180 (Cervical) ([3]; 500 mg/kg): 68%
- Percent Tumor Growth Inhibition HT29 (Colon) (HT29 (Colon) xenograft; 75 mg/kg (2/week)): 74%
- Percent Tumor Growth Inhibition HT29 (Colon) (HT29 (Colon) xenograft; 100 mg/kg): 63%
- Percent Tumor Growth Inhibition Calu-6 (Lung) (Calu-6 (Lung) xenograft; 50 mg/kg (2/week)): 73%
- Percent Tumor Growth Inhibition Calu-6 (Lung) (Calu-6 (Lung) xenograft; 100 mg/kg): 42%
- Percent Tumor Growth Inhibition Calu-6 (Lung) (Calu-6 (Lung) xenograft; 500 mg/kg): 81%
- GI50 (Calu-6 cells): 185 µM
- GI50 (HT29 cells [4]): 238 µM
- Inhibition of tumor growth in vivo, in words [5]: effective in inhibiting growth of several different tumor types in vivo
- GI50 (H69AR cells): 77 µM
- GI50 (TUR cells): 9 µM
- GI50 (PC3 cells): 85 µM

Source: patent US20060205677A1 (XenoPort, Inc., priority 2005, published 2006)
